Test results published in patent publication US12329171B1, “Natural food preservative” (IMAM MOHAMMAD IBN SAUD ISLAMIC UNIVERSITY, priority 2024, dated 2025).

Experiments:
S. aureus = assay: Well diffusion assay, antibacterial; format: cell-based, Staphylococcus aureus; settings: 10 μl
Excerpt: (§1) The investigation focused on the antibacterial properties of extracts derived from onion peel, pomegranate peel, and chia seed, particularly when encapsulated in nanoformulations (OPE-CSNP and PPE-CSNP). The extracts, known for their richness in bioactive compounds like phenolic compounds, flavonoids, and tannins, were explored for potential health benefits against various microbes. The study employed the inhibition zone diameter to evaluate the effectiveness of these natural extracts in inhibiting microbial growth, thereby assessing their antimicrobial properties.
(§2) Moreover, these composites show promise as food preservatives, potentially extending shelf life, given their moderate antimicrobial activity against B. cereus and S. aureus.

B. cereus = assay: Well diffusion assay, antibacterial; format: cell-based, Bacillus cereus; settings: 10 μl
Excerpt: as §1, §2

Compound	Inhibition zone diameter (mm) S. aureus (S. aureus)	Inhibition zone diameter (mm) B. cereus (B. cereus)
CC1(C)S[C@@H]2[C@H](NC(=O)[C@H](N)c3ccccc3)C(=O)N2[C@H]1C(=O)O [Ampicillin, ampicillin]	16 mm	16 mm
penicillin	14 mm	14 mm
